Measurements taken from article PMC2694832, “Pharmacokinetics, tissue distribution and mass balance of radiolabeled dihydroartemisinin in male rats” (Malaria Journal, 2009).

Test: Tissue distribution of [^14C] DHA
Format: in vivo, rats
Conditions: for Total Amounts of radioactivity in all measured tissues per gram / % of total AUC / Half-lives of radioactivity / Tissue AUC of radioactivity / Distribution of radioactivity: male rats i.v. 3 mg/20 μCi/kg
Protocol: Rats treated with a single [^14C] DHA dose of 3 mg/20 μCi/kg intravenously (5 rats per group) were anesthaetized by isofluorane and euthanized via cardiac puncture at 1, 6, 24, 48, 72, 96, and 192 hours, post-dosing. Blood, liver, brain, eyes, adrenals, muscle, lungs, heart, liver, kidneys, spleen, stomach, small intestine, large intestine, perirenal fat and bone marrow samples were removed from each animal by gross dissection. The gastrointestinal tract (GI) was separated into the stomach (oesophagus and stomach), small intestine, and large intestine. Contents were procured from each GI segment. After flushing with saline, these and other tissues were stored. Tissues were rinsed gently, but thoroughly with water to remove remaining traces of blood before storage. Dissecting instruments were also washed between tissue procurements to avoid cross-contamination.
For most of the tissues 20% (w/w) aqueous homogenates of the tissue were prepared. Aqueous homogenates of the faecal and GI content samples were also prepared. Metabolism cages were washed with a solution of 2% Count-off® and the volume was measured. Radioactivity in the plasma samples and in aliquots (approx. 0.02–1.0 ml) of urine and cage washings was determined. The blood cells (primarily erythrocytes), perirenal fat (approx. 0.2 g), bone marrow samples (approx. 0.1 ml), and approximately 300-μl aliquots of the homogenates of faeces, liver, kidneys, heart, brain, stomach and carcass were solubilized with SolvableTM tissue solubilizer (Perkin-Elmer Life and Analytical Sciences, Boston, MA). The homogenates of faeces, stomach content, and intestinal contents were extracted with 50% methanol for 24 hours. Aliquots of blood and pooled urine samples from selected intervals were also analysed for DHA content directly.
Total radioactivity in the collected tissue samples were quantified in duplicate. Weighed tissue aliquots (~0.2 g) were digested overnight in 2 ml of Solvable® tissue solubilizer (Perkin-Elmer Life and Analytical Sciences, Boston, MA) at 50°C. Coloured samples were decolourized by adding a maximum of 0.2 ml of 30% H2O2 for 30–60 minutes. Scintillation cocktail (Hyonic Fluor; Perkin-Elmer Boston. Massachusetts, USA) was then added and radioactivity determined in a Perkin-Elmer Tri-Carb 3100 TR scintillation spectrophotometer (Packard Instrument Co., Downers Grove, Illinois, USA). Faeces and intestinal contents were thoroughly homogenized before taking aliquots. Plasma was also analysed using the HPLC-ECD system to measure the concentration of unchanged DHA, as described by Li et al.

C[C@@H]1CC[C@H]2[C@@H]([14CH3])C(O)O[C@@H]3O[C@@]4(C)CC[C@@H]1[C@]32OO4 (stereo partly drawn) [[^14C] DHA, [16-^14C] DHA]
Total Amounts of radioactivity in all measured tissues per gram (1 hr): 87,187 ng equivalents/tissue gram | Total Amounts of radioactivity in all measured tissues per gram (1 hr, listed as [^14C]-dihydroartemisinin): 87186.55 ng equivalents/tissue gram | radioactivity in the total measured tissues amassed in the small intestine and its content (1 hr, rats i.v. 3 mg/20 μCi/kg): approximately 62.6% | Total Amounts of radioactivity in all measured tissues per gram (6 hr): 86023 ng equivalents/tissue gram | Total Amounts of radioactivity in all measured tissues per gram (6 hr, listed as [^14C]-dihydroartemisinin): 86023.26 ng equivalents/tissue gram | Total Amounts of radioactivity in all measured tissues per gram (24 hr): 21,457 ng equivalents/tissue gram | Total Amounts of radioactivity in all measured tissues per gram (24 hr, listed as [^14C]-dihydroartemisinin): 21457.06 ng equivalents/tissue gram | Total Amounts of radioactivity in all measured tissues per gram (48 hr): 16,390 ng equivalents/tissue gram | Total Amounts of radioactivity in all measured tissues per gram (48 hr, listed as [^14C]-dihydroartemisinin): 16390.68 ng equivalents/tissue gram | Total Amounts of radioactivity in all measured tissues per gram (72 hr): 15,831 ng equivalents/tissue gram | Total Amounts of radioactivity in all measured tissues per gram (72 hr, listed as [^14C]-dihydroartemisinin): 15831.77 ng equivalents/tissue gram | Total Amounts of radioactivity in all measured tissues per gram (96 hr): 11,385 ng equivalents/tissue gram | Total Amounts of radioactivity in all measured tissues per gram (96 hr, listed as [^14C]-dihydroartemisinin): 11385.67 ng equivalents/tissue gram | Total Amounts of radioactivity in all measured tissues per gram (192 hr): 13,961 ng equivalents/tissue gram | Total Amounts of radioactivity in all measured tissues per gram (192 hr, listed as [^14C]-dihydroartemisinin): 13961.18 ng equivalents/tissue gram | % of total AUC (Adrenals): 10.59% | Half-lives of radioactivity (Adrenals): 92.48 ± 44.34 h | Tissue AUC of radioactivity (Adrenals): 448,390 ng·hr/g | Tissue AUC of radioactivity (Adrenals, listed as [^14C]-dihydroartemisinin): 448390 ± 273502 ng·h/g | Distribution of radioactivity (Blood, 1 hr): 936.19 ng equivalents/tissue gram | Distribution of radioactivity (Blood, 6 hr): 795.07 ng equivalents/tissue gram | Distribution of radioactivity (Blood, 24 hr): 366.76 ng equivalents/tissue gram | Distribution of radioactivity (Blood, 48 hr): 252.05 ng equivalents/tissue gram | Distribution of radioactivity (Blood, 72 hr): 194.59 ng equivalents/tissue gram | Distribution of radioactivity (Blood, 96 hr): 130.92 ng equivalents/tissue gram | Distribution of radioactivity (Blood, 192 hr): 118.71 ng equivalents/tissue gram | % of total AUC (Blood): 1.07% | Half-lives of radioactivity (Blood): 122.13 ± 8.73 h | Tissue AUC of radioactivity (Blood): 45463 ± 6810 ng·h/g | % of total AUC (Brain): 0.81% | Half-lives of radioactivity (Brain): 72.21 ± 6.33 h | Tissue AUC of radioactivity (Brain): 34,189 ng·hr/g | Tissue AUC of radioactivity (Brain, listed as [^14C]-dihydroartemisinin): 34189 ± 4885 ng·h/g | % of total AUC (Eyes): 0.39% | Half-lives of radioactivity (Eyes): 75.22 ± 9.40 h | Tissue AUC of radioactivity (Eyes): 16519 ± 3048 ng·h/g | % of total AUC (Fat): 0.60% | Half-lives of radioactivity (Fat): 131.69 ± 21.94 h | Tissue AUC of radioactivity (Fat): 25253 ± 1490 ng·h/g | Distribution of radioactivity (Heart, 1 hr): 1512.27 ng equivalents/tissue gram | Distribution of radioactivity (Heart, 6 hr): 1107.89 ng equivalents/tissue gram | Distribution of radioactivity (Heart, 24 hr): 647.58 ng equivalents/tissue gram | Distribution of radioactivity (Heart, 48 hr): 527.3 ng equivalents/tissue gram | Distribution of radioactivity (Heart, 72 hr): 568.43 ng equivalents/tissue gram | Distribution of radioactivity (Heart, 96 hr): 377.26 ng equivalents/tissue gram | Distribution of radioactivity (Heart, 192 hr): 443.20 ng equivalents/tissue gram | % of total AUC (Heart): 2.47% | Half-lives of radioactivity (Heart): 74.35 ± 25.84 h | Tissue AUC of radioactivity (Heart): 104,598 ng·hr/g | Tissue AUC of radioactivity (Heart, listed as [^14C]-dihydroartemisinin): 104598 ± 24036 ng·h/g | Distribution of radioactivity (Kidneys, 1 hr): 4097.87 ng equivalents/tissue gram | Distribution of radioactivity (Kidneys, 6 hr): 4502.00 ng equivalents/tissue gram | Distribution of radioactivity (Kidneys, 24 hr): 2535.56 ng equivalents/tissue gram | Distribution of radioactivity (Kidneys, 48 hr): 2324.72 ng equivalents/tissue gram | Distribution of radioactivity (Kidneys, 72 hr): 3286.27 ng equivalents/tissue gram | Distribution of radioactivity (Kidneys, 96 hr): 1802.63 ng equivalents/tissue gram | Distribution of radioactivity (Kidneys, 192 hr): 1819.89 ng equivalents/tissue gram | % of total AUC (Kidneys): 4.53% | Half-lives of radioactivity (Kidneys): 77.90 ± 8.41 h | Tissue AUC of radioactivity (Kidneys): 191,781 ng·hr/g | Tissue AUC of radioactivity (Kidneys, listed as [^14C]-dihydroartemisinin): 191781 ± 66422 ng·h/g | Distribution of radioactivity (LI Content, 1 hr): 2914.59 ng equivalents/tissue gram | Distribution of radioactivity (LI Content, 6 hr): 35567.01 ng equivalents/tissue gram | Distribution of radioactivity (LI Content, 24 hr): 5127.28 ng equivalents/tissue gram | Distribution of radioactivity (LI Content, 48 hr): 2037.53 ng equivalents/tissue gram | Distribution of radioactivity (LI Content, 72 hr): 1426.62 ng equivalents/tissue gram | Distribution of radioactivity (LI Content, 96 hr): 491.66 ng equivalents/tissue gram | Distribution of radioactivity (LI Content, 192 hr): 1333.83 ng equivalents/tissue gram | % of total AUC (LI Content): 13.90% | Half-lives of radioactivity (LI Content): 37.20 ± 6.08 h | Tissue AUC of radioactivity (LI Content): 588,542 ng·hr/g | Tissue AUC of radioactivity (LI Content, listed as [^14C]-dihydroartemisinin): 588542 ± 104261 ng·h/g | Distribution of radioactivity (Large intestine (LI), 1 hr): 1818.56 ng equivalents/tissue gram | Distribution of radioactivity (Large intestine (LI), 6 hr): 8394.43 ng equivalents/tissue gram | Distribution of radioactivity (Large intestine (LI), 24 hr): 1420.58 ng equivalents/tissue gram | Distribution of radioactivity (Large intestine (LI), 48 hr): 562.96 ng equivalents/tissue gram | Distribution of radioactivity (Large intestine (LI), 72 hr): 509.29 ng equivalents/tissue gram | Distribution of radioactivity (Large intestine (LI), 96 hr): 220.41 ng equivalents/tissue gram | Distribution of radioactivity (Large intestine (LI), 192 hr): 304.72 ng equivalents/tissue gram | % of total AUC (Large intestine (LI)): 1.66% | Half-lives of radioactivity (Large intestine (LI)): 62.53 ± 43.59 h | Tissue AUC of radioactivity (Large intestine (LI)): 70,217 ng·hr/g | Tissue AUC of radioactivity (Large intestine (LI), listed as [^14C]-dihydroartemisinin): 70217 ± 25001 ng·h/g | Distribution of radioactivity (Liver, 1 hr): 4594.85 ng equivalents/tissue gram | Distribution of radioactivity (Liver, 6 hr): 3516.69 ng equivalents/tissue gram | Distribution of radioactivity (Liver, 24 hr): 1403.29 ng equivalents/tissue gram | Distribution of radioactivity (Liver, 48 hr): 1104.94 ng equivalents/tissue gram | Distribution of radioactivity (Liver, 72 hr): 1503.74 ng equivalents/tissue gram | Distribution of radioactivity (Liver, 96 hr): 842.90 ng equivalents/tissue gram | Distribution of radioactivity (Liver, 192 hr): 1270.24 ng equivalents/tissue gram | % of total AUC (Liver): 4.07% | Half-lives of radioactivity (Liver): 95.18 ± 37.90 h | Tissue AUC of radioactivity (Liver): 172,474 ng·hr/g | Tissue AUC of radioactivity (Liver, listed as [^14C]-dihydroartemisinin): 172474 ± 85780 ng·h/g | Distribution of radioactivity (Lungs, 1 hr): 1161.72 ng equivalents/tissue gram | Distribution of radioactivity (Lungs, 6 hr): 1040.99 ng equivalents/tissue gram
